In brackets after ≈: the same amount, converted by molar mass. Read-outs that look alike come from different tables or passages of the source.
Columns and labels:
[1] = system: human cancer cells (HeLaS3); test: Inhibitory effect on growth of human cancer cells (HeLaS3); assay type: cell-based; details: Neutral Red staining, 550 nm
Protocol: Inhibitory effect on growth of human cancer cells (HeLaS3):
HeLaS, cells were suspended in a medium comprising MEM medium (Nissui Pharmaceutical Co., Ltd.) and 2 mM glutamine (hereinafter referred to as Medium A) to a concentration of 3×10^4 cells/ml. The cell suspension thus prepared was put into wells of a 96-well microtiter plate in an amount of 0.1 ml/well. The cells on the plate were incubated in a CO2 -incubater at 37° C. for 20 hours, and 0.05 ml of a sample containing a test compound and appropriately diluted with Medium A was added to each well. The cells were further incubated in the CO2 -incubater at 37° C. for 72 hours. After the culture supernatant was removed, a medium comprising Medium A and 0.02% Neutral Red was added to the residue in an amount of 0.1 ml/well, followed by incubation at 37° C. for one hour in the CO2 -incubater, whereby the cells were stained. The culture supernatant was removed and the residue was washed once with physiological saline solution. The pigment was extracted with 0.001 N-HCl/30%-ethanol, and the absorbance was determined at 550 nm with a microplate reader. The absorbance determined for intact cells was compared with that for the cells treated with the test compound of a known concentration, and the concentration of the test compound for inhibiting 50% growth of the cells (IC50) was calculated.

P388 ascites tumor = test: Effect on P388 ascites tumor (increased life span); assay type: in vivo; details: intraperitoneal, 24 hours after implantation, male CDF1 mouse
Protocol: Effect on P388 ascites tumor:
P388 tumor cells (10^6 cells) were implanted intraperitoneally into a DBA/2 mouse and the cells were collected from the ascitic fluid of the animal 7 days after the implantation. The cells were ashed once with sterilized physiological saline solution and then suspended in a sterilized physiological saline solution to prepare a cell suspension containing 5×10^6 cells/ml. The suspension (0.2 ml) was intraperitoneally inoculated into a male CDF1 mouse aged 6 weeks. A test compound was dissolved in physiological saline solution and intraperitoneally administered to the animal 24 hours after implantation of the tumor cells. One test group comprised 5 mice. The mean survival time (days) of a test group which received a test compound at a specified concentration was calculated as T from survival days of animals in the group. ON the other hand, the mean survival time (days) of the non-administered group (C) was obtained in the same manner, and the increased life span (ILS %) was calculated as [(T-C)/C]×100 (%).

[2] = Acute toxicity (LD50), single intravenous administration to male ddy mice; details: mouse, in vivo, 14 days observation, Probit's method
Protocol: A test compound was administered intravenously once to male ddy mice. One test group comprised ten mice. […] LD50 was calculated from the death rate of each group in accordance with Probit's method.

[3] = Homo sapiens, HeLa S3, 72 hours at 37° C., read-out: IC50

IC50 [1, 3] | SMILES | LD50 at 336 h [2] | ILS at 25 mg/kg (P388 ascites tumor; P388, ip) | other results
0.0026 µg/mL (≈ 0.00635 µM) | NCCNCCNc1ccc2c(CNCCN)nn3c4cccc(O)c4c(=O)c1c23 [Compound 48, 5-[2-(2-Aminoethylamino)ethyl]amino-2-(2-aminoethyl)aminomethyl-7-hydroxy-6H-pyrazolo[4,5,1-d,e]acridin-6-one] |  |  | ILS at 50 mg/kg (P388 ascites tumor; P388, ip, dose 50 mg/kg): > 200%
0.014 µg/mL (≈ 0.0355 µM) | NCCCNCc1nn2c3cccc(O)c3c(=O)c3c(NCCCN)ccc1c32 [Compound 29, 5-(3-Aminopropyl)amino-2-(3-aminopropyl)aminomethyl-7-hydroxy-6H-pyrazolo[4,5,1-d,e]acridin-6-one] |  |  | ILS at 12.5 mg/kg (P388 ascites tumor; P388, ip): > 121%
0.078 µg/mL (≈ 0.206 µM) | NCCCNCc1nn2c3ccccc3c(=O)c3c(NCCCN)ccc1c32 [Compound 22, 5-(3-Aminopropyl)amino-2-(3-aminopropyl)aminomethyl-6H-pyrazolo[4,5,1-d,e]acridin-6-one] |  | 52% | 
0.003 µg/mL (≈ 0.00731 µM) | NCCNCc1nn2c3cccc(O)c3c(=O)c3c(NCCNCCO)ccc1c32 [Compound 46, 2-(2-Aminoethyl)aminomethyl-7-hydroxy-5-[2-(2-hydroxyethylamino)ethyl]amino-6H-pyrazolo[4,5,1-d,e]acridin-6-one] |  | > 156% | 
0.26 µg/mL (≈ 0.513 µM) | O=c1c2c(O)cccc2n2nc(CNCCN3CCOCC3)c3ccc(NCCN4CCOCC4)c1c32 [Compound 56, 7-Hydroxy-5-(2-morpholinoethyl)amino-2-(2-morpholinoethyl)aminomethyl-6H-pyrazolo[4,5,1-d,e]acridin-6-one] |  |  | ILS at 100 mg/kg (P388 ascites tumor; P388, ip, dose 100 mg/kg): 121%

Continued, compound first:

SMILES | IC50 [1, 3] | LD50 at 336 h [2] | ILS at 25 mg/kg (P388 ascites tumor; P388, ip) | other results
O=c1c2ccccc2n2nc(CN(CCCl)CCCl)c3cccc1c32 [Compound 9, 2-Bis(2-chloroethyl)aminomethyl-6H-pyrazolo[4,5,1-d,e]acridin-6-one] |  |  |  | IC50 ([1]; 72 hours at 37° C.): 0.92 µg/mL (≈ 2.46 µM); ILS (%) (P388 ascites tumor; dose 18.8 mg/kg): 28%
NCCNc1ccc2c(CN(CCO)CCO)nn3c4cccc(O)c4c(=O)c1c23 [Compound 53, 5-(2-Aminoethyl)amino-2-bis(2-hydroxyethyl)aminomethyl-7-hydroxy-6H-pyrazolo[4,5,1-d,e]acridin-6-one] |  | 25 mg/kg | > 100% | 
CN(C)CCNc1ccc2c(CN(CCO)CCO)nn3c4cccc(O)c4c(=O)c1c23 [Compound 51, 2-Bis(2-hydroxyethyl)aminomethyl-5-(2-dimethylaminoethyl)amino-7-hydroxy-6H-pyrazolo[4,5,1-d,e]acridin-6-one] |  | 15.7 mg/kg | > 186% | 
NCCNCc1nn2c3cccc(O)c3c(=O)c3c(NCCN)ccc1c32 [Compound 28, 5-(2-Aminoethyl)amino-2-(2-aminoethyl)aminomethyl-7-hydroxy-6H-pyrazolo[4,5,1-d,e]acridin-6-one] |  | 15.7 mg/kg |  | ILS at 12.5 mg/kg (P388 ascites tumor; P388, ip): > 154%

— US5079358A, “6H-pyrazolo-[4,5,1-d,e]acridin-6-one derivatives having anit-tumor activity” (Kyowa Hakko Kogyo Co., Ltd., priority 1988, dated 1992)
